Converted amounts (≈) assume the structure as drawn.

In this assay the test system is Plasmodium falciparum. The assay can be described thus: In vitro antimalarial activity against Plasmodium falciparum 3D7. The format is functional, organism-based.
As a reminder, the IC50 is the point on the concentration scale where inhibition reaches its midpoint. A low value points to inhibition by little substance. In turn, `Cc1ccc(C(=O)C2=Cc3cc(Br)ccc3OC2)cc1` came in with an IC50 of 8.6 µg/mL (≈ 26.1 µM).
In the case of `COc1cccc2c1OCC(C(=O)c1ccccc1C)=C2` it was 15.1 µg/mL (≈ 53.9 µM).
`COc1ccc(Br)cc1/C=C/C(=O)c1ccccc1C` gave an IC50 of 9.3 µg/mL (≈ 28.1 µM).
In the case of `Cc1ccccc1C(=O)C1=Cc2cc(Br)ccc2OC1`, it took 13.5 µg/mL (≈ 41 µM) to reach half-maximal inhibition (IC50).
In the case of `C=CC(C)(C)c1cc(/C=C/C(=O)c2ccc(O)cc2)c(OC)cc1O` [LICOAGROCHACONE A] it was 2.2 µg/mL (≈ 6.5 µM); in that of `COc1ccc(Br)cc1/C=C/C(=O)c1ccc(C)cc1`, 10 µg/mL (≈ 30.2 µM).
In the case of `O=C(C1=C(c2ccccc2)CCC1)c1ccccc1` it was 35 µg/mL (≈ 141 µM); in that of `COc1ccc(C(=O)/C=C/c2ccc(OC)cc2OC)cc1`, 6 µg/mL (≈ 20.1 µM); in that of `COc1cccc(/C=C/C(=O)c2ccccc2C)c1OC`, 11 µg/mL (≈ 39 µM).
As for `COc1ccc(C(=O)C2=C(c3ccc(OC)cc3)CCC2)cc1`, the figure is above 100 µg/mL; as for `O=C(C1=Cc2ccccc2OC1)c1ccccc1`, 4.7 µg/mL (≈ 19.9 µM); as for `COc1ccc(C(=O)C2=Cc3ccc(OC)cc3OC2)cc1`, 13.3 µg/mL (≈ 44.9 µM).
On to `COc1ccccc1/C=C/C(=O)c1ccccc1`, for which inhibition was half-maximal at 7.6 µg/mL (≈ 31.9 µM) (IC50).
In the case of `O=C(/C=C/c1ccccc1)c1ccccc1` [CHALCONE] it was 6.7 µg/mL (≈ 32.2 µM); in that of `COc1ccc(/C=C/C(=O)c2ccc(OC)cc2)cc1` [4,4'-DIMETHOXYCHALCONE], 8.9 µg/mL (≈ 33.2 µM).

The values above are taken from ChEMBL document CHEMBL1143478, “Conformationally restricted anti-plasmodial chalcones” (Bioorg Med Chem Lett, 2005).
